Results reported in patent US7964591B2, “Pyridazine derivatives and their use as therapeutic agents” (Novartis Pharma AG, priority 2003, dated 2011).

target: T1, stearoyl-CoA desaturase (SCD) (Mus musculus, UniProt P13516); test: Stearoyl-CoA desaturase inhibition using mouse liver microsomes (HTS microsomal assay, IC50 follow-up); details: % SCD enzyme activity remaining at 10 μM test compound
T1 sequence (P13516 1-355): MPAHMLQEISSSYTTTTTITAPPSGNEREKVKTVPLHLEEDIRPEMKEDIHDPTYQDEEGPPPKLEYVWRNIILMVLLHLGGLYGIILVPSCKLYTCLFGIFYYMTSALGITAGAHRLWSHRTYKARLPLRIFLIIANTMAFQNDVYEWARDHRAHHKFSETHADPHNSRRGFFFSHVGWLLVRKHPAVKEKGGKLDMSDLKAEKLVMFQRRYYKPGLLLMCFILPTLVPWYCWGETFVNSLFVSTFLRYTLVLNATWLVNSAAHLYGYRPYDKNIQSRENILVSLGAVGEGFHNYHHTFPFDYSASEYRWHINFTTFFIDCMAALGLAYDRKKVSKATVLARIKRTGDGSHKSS
Method: Livers are immediately rinsed with cold 0.9% NaCl solution, weighed and minced with scissors. All procedures are performed at 4° C. unless specified otherwise. Livers are homogenized in a solution (1:3 w/v) containing 0.25 M sucrose, 62 mM potassium phosphate buffer (pH 7.0), 0.15 M KCl, 1.5 mM N-acetyleysteine, 5 mM MgCl2, and 0.1 mM EDTA using 4 strokes of a Potter-Elvehjem tissue homogenizer. The homogenate is centrifuged at 10,400×g for 20 min to eliminate mitochondria and cellular debris. The supernatant is filtered through a 3-layer cheesecloth and centrifuged at 105,000×g for 60 min. The microsomal pellet is gently resuspended in the same homogenization solution with a small glass/teflon homogenizer and stored at −70° C. The absence of mitochondrial contamination is enzymatically assessed. The protein concentration is measured using bovine serum albumin as the standard.
The tubes are vortexed vigorously and after 15 min incubation in a shaking water bath (37° C.), the reactions are stopped and fatty acids are analyzed.
Fatty acids are analyzed as follows: The reaction mixture is saponified with 10% KOH to obtain free fatty acids which are further methylated using BF3 in methanol. […] Fatty acid methyl esters are separated isocratically with acetonitrile/water (95:5 v:v) at a flow rate of 1 mL/min and are identified by comparison with authentic standards.
The compounds are analyzed with an HTS microsomal assay. The activities are defined in terms of % SCD enzyme activity remaining at the selected concentration (e.g., 10 μM) of the test compounds.

Compound | Mouse Microsome 10% remaining @ 10 μM [%]
CC(C)CCNC(=O)c1ccc(N2CCN(C(=O)OC(C)(C)C)CC2)nn1 [4-[6-(3-METHYLBUTYLCARAMOYL)PYRIDAZIN-3-YL]PIPERAZINE-1-CARBOXYLIC ACID T-BUTYL ESTER] | 11
CC(C)CCNC(=O)c1ccc(N2CCN(C(=O)CC(C)C(F)(F)F)CC2)nn1 (centres unmarked) [6-[4-(4,4,4-TRIFLUORO-3-METHYLBUTYRYL)PIPERAZIN-1-YL]PYRIDAZINE-3-CARBOXYLIC ACID (3-METHYLBUTYL)AMIDE] | 11
O=C(NCCC1CC1)c1ccc(N2CCN(Cc3cc(Cl)ccc3C(F)(F)F)CC2)nn1 [6-[4-(5-CHLORO-2-TRIFLUOROMETHYLBENZYL)PIPERAZIN-1-YL]PYRIDAZINE-3-CARBOXYLIC ACID (2-CYCLOPROPYLETHYL)AMIDE] | 7
O=C(NCCc1ccccc1)Nc1ccc(N2CCN(C(=O)c3ccccc3C(F)(F)F)CC2)nn1 | 15
O=C(NCCC1CC1)c1ccc(N2CCN(C(=O)c3cc(Cl)ccc3C(F)(F)F)CC2)nn1 [6-[4-(5-CHLORO-2-TRIFLUOROMETHYLBENZOYL)PIPERAZIN-1-YL]PYRIDAZINE-3-CARBOXYLIC ACID (2-CYCLOPROPYLETHYL)AMIDE] | 12
COc1ccc(CCNC(=O)c2ccc(N3CCN(C(=O)c4ccccc4C(F)(F)F)CC3)nn2)cc1 [6-[4-(2-TRIFLUOROMETHYLBENZOYL)PIPERAZIN-1-YL]PYRIDAZINE-3-CARBOXYLIC ACID [2-(4-METHOXYPHENYL)ETHYL]AMIDE] | 7
O=C(NCCc1ccccc1)c1ccc(N2CCN(C(=O)c3ccccc3C(F)(F)F)CC2)nn1 [6-[4-(2-Trifluoromethylbenzoyl)piperazin-1-yl]pyridazine-3-carboxylic acid phenethylamide] | 0
O=C(NCc1ccccc1)Nc1ccc(N2CCN(C(=O)c3ccccc3C(F)(F)F)CC2)nn1 [1-BENZYL-3-{6-[4-(2-TRIFLUOROMETHYLBENZOYL)PIPERAZIN-1-YL]PYRIDAZIN-3-YL}UREA] | 8
O=C(NCCC1CC1)c1ccc(N2CCN(C(=O)C3CCCCC3)CC2)nn1 [6-(4-CYCLOHEXANECARBONYLPIPERAZIN-1-YL)PYRIDAZINE-3-CARBOXYLIC ACID (2-CYCLOPROPYLETHYL)AMIDE] | 22
CC(C)CCNC(=O)c1ccc(N2CCN(C(=O)C(C)CC(F)(F)F)CC2)nn1 (centres unmarked) [6-[4-(4,4,4-TRIFLUORO-2-METHYLBUTYRYL)PIPERAZIN-1-YL]PYRIDAZINE-3-CARBOXYLIC ACID (3-METHYLBUTYL)AMIDE] | 19
CC(C)CCNC(=O)c1ccc(N2CCN(C(=O)c3nnn(Cc4ccccc4)c3C(F)(F)F)CC2)nn1 [6-[4-(1-BENZYL-5-TRIFLUOROMETHYL-1H-[1,2,3]TRIAZOLE-4-CARBONYL)-PIPERAZIN-1-YL]PYRIDAZINE-3-CARBOXYLIC ACID (3-METHYLBUTYL)AMIDE] | 61
O=C(NCCC1CC1)c1ccc(N2CCN(C(=O)c3cc(C(F)(F)F)ccc3C(F)(F)F)CC2)nn1 [6-[4-(2,5-BIS-TRIFLUOROMETHYLBENZOYL)PIPERAZIN-1-YL]PYRIDAZINE-3-CARBOXYLIC ACID (2-CYCLOPROPYLETHYL)AMIDE] | 6
O=C(NCCC1CC1)c1ccc(N2CCN(C(=O)c3ccoc3C(F)(F)F)CC2)nn1 [6-[4-(2-TRIFLUOROMETHYLFURAN-3-CARBONYL)PIPERAZIN-1-YL]PYRIDAZINE-3-CARBOXYLIC ACID (2-CYCLOPROPYLETHYL)AMIDE] | 7
CC(NC(=O)Nc1ccc(N2CCN(C(=O)c3ccccc3C(F)(F)F)CC2)nn1)c1ccc(F)cc1 (centres unmarked) [1-[1-(4-Fluorophenyl)ethyl]-3-{6-[4-(2-trifluoromethylbenzoyl)piperazin-1-yl]pyridazin-3-yl}urea] | 45
CC(C)CCNC(=O)c1ccc(N2CCN(C(=O)c3ccccc3N)CC2)nn1 [6-[4-(2-AMINOBENZOYL)PIPERAZIN-1-YL]PYRIDAZINE-3-CARBOXYLIC ACID (3-METHYLBUTYL)AMIDE] | 23
CC(C)CCNC(=O)c1ccc(N2CCN(C(=O)c3cnccc3C(F)(F)F)CC2)nn1 [6-[4-(4-TRIFLUOROMETHYLPYRIDINE-3-CARBONYL)PIPERAZIN-1-YL]PYRIDAZINE-3-CARBOXYLIC ACID (3-METHYLBUTYL)AMIDE] | 8
CC(=CC(=O)N1CCN(c2ccc(C(=O)NCCC(C)C)nn2)CC1)C(F)(F)F [6-[4-(4,4,4-TRIFLUORO-3-METHYLBUT-2-ENOYL)PIPERAZIN-1-YL]-PYRIDAZINE-3-CARBOXYLIC ACID (3-METHYLBUTYL)AMIDE] | 9
O=C(NCc1ccc(F)cc1)Nc1ccc(N2CCN(C(=O)c3ccccc3C(F)(F)F)CC2)nn1 [1-(4-FLUOROBENZYL)-3-{6-[4-(2-TRIFLUOROMETHYLBENZOYL)PIPERAZIN-1-YL]-PYRIDAZIN-3-YL}UREA] | 6

Compound | Mouse Microsome 10% remaining @ 10 μM [%]
CCC(CC)C(=O)N1CCN(c2ccc(C(=O)NCCC3CC3)nn2)CC1 [6-[4-(2-ETHYLBUTYRYL)PIPERAZIN-1-YL]PYRIDAZINE-3-CARBOXYLIC ACID (2-CYCLOPROPYLETHYL)AMIDE] | 36
CC(C)CCNC(=O)c1ccc(N2CCN(C(=O)N3CCN(C)CC3)CC2)nn1 [6-[4-(4-METHYLPIPERAZINE-1-CARBONYL)PIPERAZIN-1-YL]PYRIDAZIN E-3-CARBOXYLIC ACID (3-METHYLBUTYL)AMIDE] | 29
O=C(NCCC1CC1)c1ccc(N2CCN(C(=O)c3ccccn3)CC2)nn1 [6-[4-(PYRIDINE-2-CARBONYL)PIPERAZIN-1-YL]PYRIDAZINE-3-CARBOXYLIC ACID (2-CYCLOPROPYLETHYL)AMIDE] | 94
CC(C)CCNC(=O)c1ccc(N2CCN(C(=O)C3(C(F)(F)F)CC3)CC2)nn1 [6-[4-(1-TRIFLUOROMETHYLCYCLOPROPANECARBONYL)PIPERAZIN-1-YL]-PYRIDAZINE-3-CARBOXYLIC ACID (3-METHYLBUTYL)AMIDE] | 26
O=C(NCCC1CC1)c1ccc(N2CCN(Cc3cc(F)ccc3C(F)(F)F)CC2)nn1 [6-[4-(5-FLUORO-2-TRIFLUOROMETHYLBENZYL)PIPERAZIN-1-YL]PYRIDAZINE-3-CARBOXYLIC ACID (2-CYCLOPROPYLETHYL)AMIDE] | 3
CC(C(=O)N1CCN(c2ccc(C(=O)NCCC3CC3)nn2)CC1)(C(F)(F)F)C(F)(F)F [6-[4-(3,3,3-TRIFLUORO-2-METHYL-2-TRIFLUOROMETHYLPROPIONYL)PIPERAZIN-1-YL]PYRIDAZINE-3-CARBOXYLIC ACID (2-CYCLOPROPYLETHYL)AMIDE] | 8
O=C(NCCC1CC1)c1ccc(N2CCN(Cc3cc(Cl)ccc3Cl)CC2)nn1 [6-[4-(2,5-DICHLOROBENZYL)PIPERAZIN-1-YL]PYRIDAZINE-3-CARBOXYLIC ACID (2-CYCLOPROPYLETHYL)AMIDE] | 8
O=C(NCCC1CC1)c1ccc(N2CCN(C(=O)CC(O)(C(F)(F)F)C(F)(F)F)CC2)nn1 [6-[4-(4,4,4-TRIFLUORO-3-HYDROXY-3-TRIFLUOROMETHYLBUTYRYL)PIPERAZIN-1-YL]PYRIDAZINE-3-CARBOXYLIC ACID (2-CYCLOPROPYLETHYL)AMIDE] | 8
CC(C)CCNC(=O)c1ccc(N2CCN(C(=O)CCC(F)(F)F)CC2)nn1 [6-[4-(4,4,4-TRIFLUOROBUTYRYL)PIPERAZIN-1-YL]PYRIDAZINE-3-CARBOXYLIC ACID (3-METHYLBUTYL)AMIDE] | 42
CC(=O)Oc1ccccc1C(=O)N1CCN(c2ccc(C(=O)NCCC3CC3)nn2)CC1 [ACETIC ACID 2-{4-[6-(2-CYCLOPROPYLETHYLCARAMOYL)PYRIDAZIN-3-YL]-PIPERAZINE-1-CARBONYL}PHENYL ESTER] | 46
CC(C)(C)OC(=O)N1CCN(c2ccc(C(=O)NCCC3CC3)nn2)CC1 [4-[6-(2-CYCLOPROPYLETHYLCARAMOYL)PYRIDAZIN-3-YL]PIPERAZINE-1-CARBOXYLIC ACID T-BUTYL ESTER] | 37
CCCCNC(=O)Nc1ccc(N2CCN(C(=O)c3ccccc3C(F)(F)F)CC2)nn1 [1-BUTYL-3-{6-[4-(2-TRIFLUOROMETHYLBENZOYL)PIPERAZIN-1-YL]PYRIDAZIN-3-YL}UREA] | 13
O=C(NCCC1CC1)c1ccc(N2CCN(Cc3ccc(F)cc3C(F)(F)F)CC2)nn1 [6-[4-(4-FLUORO-2-TRIFLUOROMETHYLBENZYL)-PIPERAZIN-1-YL]PYRIDAZINE-3-CARBOXYLIC ACID (2-CYCLOPROPYLETHYL)AMIDE] | 12
O=C(NCC1CC1)c1ccc(N2CCN(C(=O)c3ccccc3C(F)(F)F)CC2)nn1 [6-[4-(2-TRIFLUOROMETHYLBENZOYL)PIPERAZIN-1-YL]PYRIDAZINE-3-CARBOXYLIC ACID CYCLOPROPYLMETHYLAMIDE] | 49
O=C(Nc1ccc(N2CCN(C(=O)c3ccccc3C(F)(F)F)CC2)nn1)Nc1ccccc1F [1-(2-FLUOROPHENYL)-3-{6-[4-(2-TRIFLUOROMETHYLBENZOYL)PIPERAZIN-1-YL]-PYRIDAZIN-3-YL}UREA] | 73
CCCCCNC(=O)Nc1ccc(N2CCN(C(=O)c3ccccc3C(F)(F)F)CC2)nn1 [1-PENTYL-3-{6-[4-(2-TRIFLUOROMETHYLBENZOYL)PIPERAZIN-1-YL]PYRIDAZIN-3-YL}UREA] | 6
CC(C)CCNC(=O)c1ccc(N2CCN(C(=O)c3cnn(C)c3C(F)(F)F)CC2)nn1 [6-[4-(1-METHYL-5-TRIFLUOROMETHYL-1H-PYRAZOLE-4-CARBONYL)PIPERAZIN-1-YL]-PYRIDAZINE-3-CARBOXYLIC ACID (3-METHYLBUTYL)AMIDE] | 15
